Columns and labels:
[1] = target: T1, OR4K2 (Homo sapiens, UniProt Q8NGD2); assay: Ca-imaging of OR4K2-transfected HEK293 cells; type: cell-based; set-up: key to OR4K2 responded to odorant: ▪: 18 olfactory receptors responded to 32 odorants in related with specific anosmia
T1 construct: specific primers, which amplify the complete open reading frame; expressed in transfected cells; host or cells: HEK293
T1 sequence (Q8NGD2 1-314): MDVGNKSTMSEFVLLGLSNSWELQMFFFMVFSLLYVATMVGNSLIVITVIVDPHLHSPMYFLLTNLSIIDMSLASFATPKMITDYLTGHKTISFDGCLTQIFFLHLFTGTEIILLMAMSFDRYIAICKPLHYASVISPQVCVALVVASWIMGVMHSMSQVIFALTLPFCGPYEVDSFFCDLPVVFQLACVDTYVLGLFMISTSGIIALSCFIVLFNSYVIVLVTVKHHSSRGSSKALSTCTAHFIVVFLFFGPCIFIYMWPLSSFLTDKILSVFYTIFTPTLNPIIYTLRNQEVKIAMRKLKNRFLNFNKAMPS
Protocol: (§1) HEK293 cells were cultivated in Petri dishes (Ø35 mm) as previously described (Benbernou et al. 2007). We grow up HEK293 cells in culture medium containing standard DMEM with 10% heat-inactivated fetal bovine serum, 2 mM L-glutamine, 100 units/ml penicillin, and 100 units/ml streptomycin in a humidified atmosphere (37° C., 5% CO2). After 2-3 days, the transfection process was carried out, whereby the cell culture was 70-80% confluent. The calciumphosphate method was applied to transfect DNA plasmid transiently in HEK293 cells in case of Ca-imaging method.
(§2) Calcium cations and phosphate anions created crystal precipitations coupled with DNA which could invade into the cells through endocytosis. Cells were transiently transfected with plasmid DNA which consists of pCI expression vector and PCR-amplified full-length cDNA of olfactory receptors candidates, and also Gα15, RTP1, Myr-Ric8A, HSC70, and m-Cherry as cofactors. The precipitation could be created after 15-20 min, with dropping the transfection solution on HEK293 cells. Before measuring by Ca-imaging cells were incubated 48-60 hours at 370 C, 5% CO2. Cationic liposome-mediated transfection method was applied to transfect DNA plasmid transiently in HANA3A cells in case of CRE-Luciferase and CRE-SEAP assays.
(§3) Calcium imaging of the transfected HEK293 cells was done by using chambers determinate an inverted microscope (Olympus; IX70) using a 10× objective (CPIanFL N Olympus). Fluorescence emission was determined every 4 s by using a CCD camera (Charge Coupled Device, C9100 Hamamatsu). The capillary tube which was responsible to supply odorants was generated closely above the cells. The columns filled with odorants, DMSO and ATP. Odorants were manually monitored to drop each 4-5 s to transfected cells. Solutions with drop wise form spread on HEK293 cells in 35 mm dishes.
(§4) In experiments, Fura-2 Acetoxymethylester (Fura-2/AM) was applied. The non-polar Fura2/AM is fluorescent but not yet calcium-sensitive. Once diffuses into cell plasma, Fura-2/AM is hydrolyzed to Fura-2 which is calcium-sensitive and functions as Ca2+ chelator. Regardless of the presence of calcium, Fura-2 emits at the wavelength of 510 nm. Once Fura-2 binds to free intracellular Ca2+ in cell plasma, its ratio of excitation at wavelengths of 340 nm and 380 nm is changed and correlated to the amount of intracellular Ca2+. According to this feature, the analysis of 340/380 nm excitation ratio for Fura-2 allows to quantify intracellular calcium levels.
(§5) In preparation for Ca-imaging measurements, transfected HEK293 cells were added 3 it Fura2/AM (3 μM) and incubated 30-45 min at 370 C, 5% CO2. After this step, experiments were carried out in a dark condition (Fura-2 is light-sensitive). After the incubation, medium of cell culture was replaced with 2 ml Ringer's solution.
(§6) Odorants were freshly prepared with DMSO as 1 M stocks solutions. Six mixtures (200 μM each chemical) were applied to cells sequentially (20 s each mixture/30 s Ringer). Those ORs tested with single odorants that had generated a response to odorant mixture group previously. Odorants were prepared in 100-200 μM concentration.
(§7) Ringer's solution was used for washing cells between measuring by two different odorants. Positive response was determined by the timing of the response, the strength of the response (more than twofold higher than the noise amplitude of the baseline), and the shape of the response curve (sharp rise in curve with gradual recovery). […]

[2] = target: T2, OR10Q1 (Homo sapiens, UniProt Q8NGQ4); assay: Ca-imaging of OR10Q1-transfected HEK293 cells; type: cell-based; set-up: key to OR10Q1 responded to odorant: ▪: 18 olfactory receptors responded to 32 odorants in related with specific anosmia; conditions: for Response of OR10Q1 to odorant, in words: single odorants 200 μM
T2 construct: specific primers, which amplify the complete open reading frame; expressed in transfected cells; host or cells: HEK293
T2 sequence (Q8NGQ4 1-319): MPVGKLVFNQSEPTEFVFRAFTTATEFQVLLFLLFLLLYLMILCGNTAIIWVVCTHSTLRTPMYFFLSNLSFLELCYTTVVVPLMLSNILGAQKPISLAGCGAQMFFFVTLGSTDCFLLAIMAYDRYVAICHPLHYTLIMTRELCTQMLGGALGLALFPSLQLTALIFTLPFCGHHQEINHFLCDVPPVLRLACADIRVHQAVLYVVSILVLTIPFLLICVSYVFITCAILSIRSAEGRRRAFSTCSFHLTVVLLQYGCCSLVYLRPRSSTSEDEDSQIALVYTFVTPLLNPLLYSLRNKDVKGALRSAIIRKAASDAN
Protocol: as §1, §2, §3, §4, §5, §6, §7

[3] = system: OR10Q1-614; assay: Ca-imaging of mutant OR10Q1 in HEK293 cells; type: cell-based, human; conditions: 200 μM, applied for 20 seconds
Source text: Mutations were introduced for OR1B1 and OR10Q1 by Overlap Extension PCR (OEP). […] Flanking primers in combination with internal primers provided mutated gene segments, Full length primers included EcoRI and NotI restriction sites for further cloning into pCI expression vector. Site-directed mutations were selected for base of minor allele frequency of nucleotide.
In mutagenesis by overlap extension PCR method, initial PCRs provided mutated gene segments, with overlapping complementary 3′ ends carrying desired point mutation that were then mixed and used as template for a subsequent PCR to generate the full-length product. Overlapping strands of these intermediate products hybridize at this 3′ region in a subsequent PCR and are extended to generate the full-length product amplified by flanking primers; this shown in FIG. 2. […]
Calcium imaging of the transfected HEK293 cells was done by using chambers determinate an inverted microscope (Olympus; IX70) using a 10× objective (CPIanFL N Olympus). Fluorescence emission was determined every 4 s by using a CCD camera (Charge Coupled Device, C9100 Hamamatsu). […] Odorants were manually monitored to drop each 4-5 s to transfected cells. […]
In experiments, Fura-2 Acetoxymethylester (Fura-2/AM) was applied. […] According to this feature, the analysis of 340/380 nm excitation ratio for Fura-2 allows to quantify intracellular calcium levels. […]

SMILES: O=C1CCCCCCCCCCCCCCO1 [Pentadecanolide, ω-cyclopentadecanolide]
- OR4K2 responded to odorant ([1]; HEK293 cells, individual odorant 200 μM, significant response p<0.05): ▪
- Response of OR4K2 to odorant, in words ([1]; single odorants 200 μM): responded
- OR10Q1 responded to odorant ([2]; Ca-imaging, HEK293 cells, individual odorant 200 μM, significant response p<0.05): ▪
- Response of OR10Q1 to odorant, in words ([2]; Ca-imaging): responded
- Response of OR10Q1 to odorant, in words ([2]; Ca-imaging, listed as Cyclopentadecanolide): significantly responded
- Response of OR10Q1 to odorant, in words ([2]; Ca-imaging, listed as Pentadecalactone): responded
- Number of cell responses, Experiment (OR10Q1) ([2]; odorant 200 μM, approximately 2000 transfected cells in three times of measuring (Table 4, FIG. 5)): 52
- Response of mutated OR10Q1 in comparison with OR10Q1 WT [3]: does not show any significant difference
- Response of mutated OR10Q1 in comparison with OR10Q1 WT ([3]; listed as pentadecalactone): did not show any difference

— patent US9939427B2, “Method for evaluating the scent performance of perfumes or perfume mixtures” (Symrise AG, priority 2013, dated 2018)
